The target of assay [1] is T1, mSTING (Mus musculus, UniProt Q3TBT3).
T1 sequence (Q3TBT3 1-378): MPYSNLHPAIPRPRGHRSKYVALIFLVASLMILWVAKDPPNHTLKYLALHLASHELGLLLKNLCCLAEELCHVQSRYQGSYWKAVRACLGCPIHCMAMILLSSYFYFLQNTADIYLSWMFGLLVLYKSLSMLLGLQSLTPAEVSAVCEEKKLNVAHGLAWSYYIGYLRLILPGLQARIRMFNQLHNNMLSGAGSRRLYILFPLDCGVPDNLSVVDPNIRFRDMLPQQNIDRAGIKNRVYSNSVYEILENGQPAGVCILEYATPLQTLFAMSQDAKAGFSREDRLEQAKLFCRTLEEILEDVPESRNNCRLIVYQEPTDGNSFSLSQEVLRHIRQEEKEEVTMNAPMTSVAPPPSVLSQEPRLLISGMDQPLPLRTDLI
Kind of assay: Cellular assay for STING inhibitory activity, 293T mSTING cells stimulated with 2′,3′-cGAMP (SEAP). The note with it: compound at 100 μM.

The test system of assay [2] is hSTING. Details: method as in PMID 31927317. The note with it: STING competition binding kits; cited from earlier work.
Assay [3] has as its target T2, hSTING-AQ (Homo sapiens, UniProt Q86WV6, G230A/R293Q).
T2 construct: purchased Cisbio
Kind of assay: HTRF STING competition binding (cGAMP displacement) assay, hSTING-AQ. The following applies: for IC50: HTRF displacement assay, means from at least three repeated experiments; for binding to hSTING-AQ in displacement assay, in words: concentrations up to 100 μM. As for the experimental part:
(§1) Mouse STING binding kits, human STING WT binding kits, human AQ STING binding kits, human H232 STING binding kits were purchased from Cisbio. […] QUANTI-Blue solution, QUANTI-Luc, 2′,3′-cGAMP were purchased from Invivogen. […] CellTiter-Glo luminescent cell viability assay kit was obtained from Promega.
(§2) According to the instructions of STING binding kits, the following solutions were successively added to each well in the 384-well plate: 5 μL of the detection compounds or 2′,3′-cGAMP (positive control) with different concentrations or diluent (negative control); 5 μL of human STING 6His-tagged protein (negative control well was added to detection buffer); 10 μL of STING ligand d2 and Anti 6His-Tb3^+ premixed working solution.
A general note: TR-FRET usually uses a lanthanide donor and a delayed reading to cut background.

The target in assay [4] is T1, mSTING. Kind of assay: HTRF STING competition binding (cGAMP displacement) assay, mSTING. The arrangement: purchased Cisbio. The note with it: HTRF displacement assay, means from at least three repeated experiments. As to the method: as §1, §2
For assay [5], the target named is T1, mSTING. The arrangement: purchased Cisbio; method as in PMID 31927317. The note with it: STING reporter cells, agonist activity; cited from earlier work.
The subject of assay [6] is hSTING. Details: method as in PMID 31927317. The note with it: STING reporter cells, agonist activity; cited from earlier work.
The target of assay [7] is T3, hSTING-WT (Homo sapiens, UniProt Q86WV6, H232R).
T3 construct: purchased Cisbio
Kind of assay: HTRF STING competition binding (cGAMP displacement) assay, hSTING-WT. The note with it: for IC50: HTRF displacement assay, means from at least three repeated experiments; for binding to hSTING-WT in displacement assay, in words: concentrations up to 100 μM. As to the method:
as §1, §2

Assay [8] addresses hSTING-R232 (Homo sapiens, UniProt Q86WV6, H232R). Kind of assay: Cellular assay for STING inhibitory activity, 293T hSTING-R232 cells stimulated with 2′,3′-cGAMP (SEAP). The following applies: compound at 100 μM.
The target in assay [9] is T4, hSTING-H232 (Homo sapiens, UniProt Q86WV6).
T4 construct: purchased Cisbio
As to the kind of experiment: HTRF STING competition binding (cGAMP displacement) assay, hSTING-H232. The following applies: for IC50: HTRF displacement assay, means from at least three repeated experiments; for binding to hSTING-H232 in displacement assay, in words: concentrations up to 100 μM. As to the method: as §1, §2

We go through two molecules from article PMC10095708, “Discovery of Novel STING Inhibitors Based on the Structure of the Mouse STING Agonist DMXAA” (Molecules, 2023).

Usually IC50 stands for the point on the concentration scale where inhibition reaches its midpoint. As a reminder, the EC50 is the midpoint of the concentration-response curve.

T3 sequence (Q86WV6 whole entry H232R): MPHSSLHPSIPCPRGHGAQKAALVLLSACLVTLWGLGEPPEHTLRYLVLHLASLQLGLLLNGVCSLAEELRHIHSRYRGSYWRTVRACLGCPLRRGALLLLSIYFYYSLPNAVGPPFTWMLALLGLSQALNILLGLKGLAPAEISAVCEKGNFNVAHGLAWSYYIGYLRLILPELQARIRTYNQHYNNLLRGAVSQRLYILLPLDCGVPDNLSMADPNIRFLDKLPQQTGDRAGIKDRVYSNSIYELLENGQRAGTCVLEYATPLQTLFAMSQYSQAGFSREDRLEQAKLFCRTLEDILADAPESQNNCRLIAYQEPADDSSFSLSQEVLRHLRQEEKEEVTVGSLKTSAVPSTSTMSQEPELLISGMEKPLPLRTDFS
T4 sequence (Q86WV6 135-379 limits assumed): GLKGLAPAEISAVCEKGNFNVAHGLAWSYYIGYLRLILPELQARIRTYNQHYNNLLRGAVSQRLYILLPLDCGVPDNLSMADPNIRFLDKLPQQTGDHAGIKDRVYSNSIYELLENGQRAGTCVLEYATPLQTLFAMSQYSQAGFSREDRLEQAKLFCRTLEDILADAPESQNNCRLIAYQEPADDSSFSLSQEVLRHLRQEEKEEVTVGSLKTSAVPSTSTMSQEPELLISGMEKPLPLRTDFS
T2 sequence (Q86WV6 whole entry G230A/R293Q): as the sequence (Q86WV6 whole entry H232R) above, with G230A, R232H, R293Q counted along it
Chain of hSTING-R232 (Q86WV6 whole entry H232R): as the sequence (Q86WV6 whole entry H232R) above

Consider `COc1cc2c(=O)c3cccc4c3n(c2c(C)c1C)C(=O)C4` [Compound 3], for which the “inhibitory potency in murine STING reporter cells, initial screen” value in assay [1] is recorded as “not being as effective”. The half-maximal inhibitory concentration (IC50) is 10.3 µM in assay [2]; 58.2 µM in [3]; 33.3 µM in [4]; 18.3 µM in assay [7]; 36 µM in [9]. Besides, the “binding to hSTING-AQ in displacement assay, in words” value in assay [3] was “IC50 values at the micromolar level”. Besides, the EC50 in assay [5] was 66.5 ± 10.5 µM; in assay [6], 154 ± 9.6 µM. Further, the “binding to hSTING-WT in displacement assay, in words” value in [7] is “IC50 values at the micromolar level”. Further, the “inhibitory potency in human STING reporter cells, initial screen” value in assay [8] is given as “not being as effective”. Moreover, the “binding to hSTING-H232 in displacement assay, in words” value in [9] is reported as “IC50 values at the micromolar level”.
With `COc1cc2c(=O)c3cccc(CC(=O)O)c3[nH]c2c(C)c1C` [Compound 4], the “inhibitory potency in murine STING reporter cells, initial screen” value in assay [1] was “not being as effective”. In addition, the IC50 was 13.1 µM in assay [2]; 47.6 µM in [3]; 28.2 µM in assay [4]; 21.1 µM in assay [7]; 43.8 µM in [9]. The “binding to hSTING-AQ in displacement assay, in words” value in [3] is given as “IC50 values at the micromolar level”. Moreover, the 50% effective concentration (EC50) is 72.3 ± 11.1 µM in [5] and 135 ± 12.1 µM in assay [6]. The “binding to hSTING-WT in displacement assay, in words” value in assay [7] was “IC50 values at the micromolar level”. Besides, in assay [8], the “inhibitory potency in human STING reporter cells, initial screen” value was “not being as effective”. Further, the “binding to hSTING-H232 in displacement assay, in words” value in assay [9] was “IC50 values at the micromolar level”.
